Measurements reported in patent US10053455B2, “Diazaspiroalkaneone-substituted oxazole derivatives as spleen tyrosine kinase inhibitors” (AB SCIENCE, priority 2014, dated 2018).

Key:
[1] = test system: Salmonella typhimurium strain TA98; test: AMES mutagenic assay, TA98 strain; settings: TA98, presence of S-9, 1 μg per well (positive control)
Description: (§1) Mutagenic activity of test compounds and their metabolites (produced by rat liver S9 fraction) was evaluated in the Salmonella typhimurium strains TA100 and TA98 according to the Ames assay (Toxicology in vitro, (2001), 15: 105-114). […] The results are expressed as a mutagenicity ratio in comparison to solvent controls.
(§2) The results are expressed as a ratio of the number of colonies over the number of colonies in the negative control (DMSO).

[2] = test system: Salmonella typhimurium strain TA100; settings: Salmonella typhimurium
Description: as §1, §2

c-Ret mut = test: HTRF kinase assay, c-Ret mut; format: biochemical; settings: enzymatic determination
Description: Most of the kinases tested in this study were cloned, expressed and purified in the facilities of the inventors. They were expressed either as N-terminus hexahistidine-, hexahistidine-asparagine- or GST-tagged enzymes in a baculovirus or in a Colibacille expression system. Remaining enzymes (JAKs) were purchased from Millipore or Proqinase. For each enzyme, steady state kinetic parameters were determined and validated with known inhibitors.
The analysis of the effect of compounds on kinase activity was assessed with the HTRF® KinEASE assay (Cisbio International), an immuno-assay based on the quantification of the level of phosphorylation of a biotinylated peptide substrate using anti-phospho-specific antibody labeled with Europium (Eu^3+) cryptate. This assay comprises two steps: —an enzymatic step, during which the peptide substrate, the kinase, ATP, Mg^2+ and/or Mn^2+ are incubated with varying concentration of drug (from 0 to 10 μM); —a detection step, at the end of the reaction (stopped by addition of EDTA which chelates Mg^2+), the antibody anti-phospho peptide-Eu^3+ (emission 620 nm) and streptavidin XL-665 (emission 665 nm) are added to the reaction mix. […] Results are expressed in delta fluorescence (DF) unit defined as follow DF %=[(ratio−ratio blank)/(ratio blank)]*100, where ratio=(665 nm/620 nm)*10^4. […]

[3] = test system: Murine bone marrow mast cells (BMMCs); test: IgE-mediated mast cell degranulation assay (β-hexosaminidase release); format: cell-based, C57BL/6J mice
Description: In vitro mast cell degranulation assay monitored by released of β-hexosaminidase. Murine bone marrow mast cells (BMMCs) are obtained by flushing bone marrow cells from the femurs of C57BL/6J mice, then cultured for 3-4 weeks in RPMI containing mouse recombinant IL-3 (30 ng/ml). RBL-2H3 is a rat basophile cell line maintained in monolayer culture in EMEM supplemented with 20% FCS, 1 mM Glutamine and 1× antibiotics. Cells were sensitized overnight with 0.2 μg/ml anti-DNP-IgE (Sigma-Aldrich D8406). […] After incubation 90 min at 37° C., the reaction was quenched by addition of 100 μl of sodium carbonate buffer (0.1M Na2CO3/NaHCO3 pH 10.0). β-hexosaminidase activity was quantified by reading plate absorbance at 405 nm with reference at 620 nm using a PolarSTAR reader plate (BMG labech).
The activity of anti-SYK compounds was tested in an IgE-mediated mast cell degranulation assay. SYK has been identified to be critical for the initiation of mast cell mediator release following the aggregation of FcεRI.

murine model of asthma = test: Mouse model of asthma: eosinophils recruitment in bronchio-alveolar lavage; format: in vivo, Balb/c male mice
Description: Balb/c male mice, 8 weeks old, were purchased from Janvier (Le Genest-Saint-Isle; FRANCE) and bred in the animal facility for 4 weeks. Drugs were dissolved in drinking solvent (80% water; 10% Tween 80 and 10% isopropanediol). It was aliquoted and stored at −20° C. Each mouse received drugs twice a day. The weight of animals was calculated before and after treatment.
Mice, 9 weeks of age, were sensitized with 50 μg of ovalbumin (Sigma-Aldrich, Germany) adsorbed to 2 mg Al(OH)3 (Prolabo, France) and diluted in physiological saline (0.9% NaCl). Ovalbumin was injected intraperitoneally on days 1 and 7. Sensitization was followed by intranasal challenges with 10 μg of ovalbumin diluted in 0.9% NaCl, each day from day 18 to day 21. On days 17 to 21, animals treated with drugs received 100 μl of a solution at 15 mg/ml, at 7.5 mg/ml or at 3.75 mg/ml administered per os twice a day during 5 days. These treatments corresponded to concentration of 60 mg/mouse kg, 30 mg/mouse kg and 15 mg/mouse kg respectively.
Bronchio-alveolar lavage (BAL) was performed after the animals were disconnected from the FlexiVent®. The airways were lavaged with 5 ml (10 times 0.5 ml) ice cold 0.9% NaCl 2.6 mM EDTA. BAL samples were centrifuged at 1200 rpm for 5 minutes at 4° C. Pellet cells were collected and erythrocytes lysed by adding 1.5 ml deionized water for 30 seconds. After neutralization with 0.5 ml of 0.6M KCl, cells were centrifuged at 1200 rpm for 5 minutes at 4° C. BAL samples were used to count the total cell number and to perform cytospins (shandon, Pontoise). Cell types were identified by morphological criteria after Hemacolor (Merck) staining.
Mice were sensitized and challenged with ovalbumin as described in protocol assays above. The mice were distributed in groups of 5-6 animals that were treated twice daily with 7.5 to 60 mg/Kg of anti-SYK/KIT drugs (PO).

[4] = test system: primary human adult cardiomyocytes; test: WST-1 cell survival/proliferation assay on human cardiomyocytes; format: cell-based; settings: Human Cardiac Myocyte
Description: WST-1 cell survival/proliferation assay (Roche Diagnostic ref No 1644807) was performed on both primary human adult cardiomyocytes and rat neonatal cardiac myocytes.
Human cardiomyocytes were isolated from normal human ventricle tissue of the adult heart and were able to proliferate for a number of passage. Neonatal ventricular Clonetics® Rat Cardiac Myocytes (P1-3) retained their contractile property and were electrophysiologically active in culture. 1.10^4 primary rat cells or 2-2.5 10^4 adult human cells were plated per well of a 96 wells plates. The cells were allowed to adhere to the plates for 5 days before drug treatment. Treatment was initiated by addition of a 2× drug solution of ½ serial dilutions ranging from 0 to 10 μM. Cells were grown for 48 h at 37° C. and then incubated with 10 μl/well of WST-1 reagent for 4 h at 37° C. The amount of formazan dye formed was quantified by its absorbance at 450 nm using a scanning multiwell spectrophotometer (MultiSkan MS, Thermo-LabSystems, France). A blank well without cells was used as a background control for the spectrophotometer and all assays were performed in triplicate.

[5] = test system: murine model of arthritis; test: K/BxN serum mouse model of rheumatoid arthritis: ankle thickening and arthritis score; format: in vivo, C57Bl/6 mice; settings: 50 mg/kg b.i.d.
Description: K/B×N serum pools were prepared from arthritic mice at 8 weeks of age. The mice were pre-treated with SYK inhibitors by two per os administration for two days before induction of arthritis. Arthritis was induced in the C57Bl/6 mice (8 weeks of age) by intraperitoneal injection (7.5 μl serum per g weight) at days 0 and 2.
The treatment with SYK inhibitors was continued for 13 days. The control mice were injected with solvent before the induction of arthritis and during the course of the disease. The compounds were dissolved in a solution containing 10% of Tween 80 and 10% 1-2 propandiol. It was prepared before administration.
Ankle thickening measure, being defined as the difference in ankle thickness from the day 0, was measured using a precision calliper. Arthritis/clinical score was defined by sum of scores of each lim (0 no disease; 1 mild swelling of paw or of just of few digits; 2 clear joint inflammation; 3 severe joint inflammation) maximum score=12.
K/B×N was a murine model of spontaneous rheumatoid arthritis that mimics many of the clinical and histological features of human disease with synovitis predominantly in the distal small joints. Arthritis was induced by intraperitoneal injection of arthritis serum of K/B×N mice at days 0 and 2 as described in protocol assays above. Compound 001 was tested at 15 and 50 mg/kg/day b.i.d. and compared with Masitinib at 50 mg/kg/day b.i.d., an AB Science drug candidate for treating rheumatoid arthritis (Arthritis Res Ther., (2009), 11(3):R95). Ankle thickening and arthritis score were used to monitor the in vivo activity of the compounds.

[6] = Experiment #1, 2 × 30 mg/kg/day PO

| IC50 (c-Ret mut) [nM] | Compound | Ratio treated/solvent [1] | Ratio treated/solvent [2] | β-hexosaminidase activity (% control untreated cells) ([3]; 0.01 μM) [%] | β-hexosaminidase activity (% control untreated cells) ([3]; 0.1 μM) [%] | β-hexosaminidase activity (% control untreated cells) ([3]; 1 μM) [%] | Percentage of Eosinophils recruitment in Bronchio-alveolar lavage (BAL) (murine model of asthma; [6]) [%] | % cell viable at 1 μM, Hu-CM ([4]; 1 μM) [%] | IC50 ([4]; 48 h, read-out: Drug-induced cytotoxicity IC50, Hu-CM) [nM] | Percentage of Eosinophils recruitment in Bronchio-alveolar lavage (BAL) (murine model of asthma; Experiment #1, 2 × 7.5 mg/kg/day PO) [%] | Percentage of Eosinophils recruitment in Bronchio-alveolar lavage (BAL) (murine model of asthma; Experiment #1, 2 × 25 mg/kg/day PO) [%] | Percentage of Eosinophils recruitment in Bronchio-alveolar lavage (BAL) (murine model of asthma; Experiment #2, 2 × 30 mg/kg/day PO) [%] | Ankle Thickening Score [5] [% P < 0.05] | Arthritis Score [5] [%] |
| --- | --- | --- | --- | --- | --- | --- | --- | --- | --- | --- | --- | --- | --- | --- |
| – | Nc1ccc2cc3ccccc3cc2c1 [Compound 2-AM, 2-Anthramine, reference compound] | 138.1 | 18.1 | – | – | – | – | – | – | – | – | – | – | – |
| 500 | COc1cc(Nc2ncc(F)c(Nc3ccc4c(n3)NC(=O)C(C)(C)O4)n2)cc(OC)c1OC [Compound R406] | – | – | 78 ± 11 | 16 ± 6 | 3 ± 3 | −31 | −18 | 2600 | – | – | – | – | – |
| – | Cc1ccc(NC(=O)c2ccc(CN3CCN(C)CC3)cc2)cc1Nc1nc(-c2cccnc2)cs1 [Masitinib] | – | – | – | – | – | −56 | – | – | −15 | −35 | −47 | −27 | −15 |
